Test results published in US7629141B2, “Essential and important genes of Pseudomonas aeruginosa and the use thereof to design or identify antibacterial agents” (priority 2001, dated 2009).

Legend:
[1] = molecular target: LpxC from P. aeruginosa (Pseudomonas aeruginosa, UniProt P47205); conditions: cited from earlier work
[2] = molecular target: E. coli LpxC enzyme (Escherichia coli, UniProt P0A725); conditions: cited from earlier work
[3] = test system: EnvA1 mutant protein (LpxC, His 19 replaced by Serine); conditions: His 19 replaced by a Serine; cited from earlier work
[4] = test system: E. coli DH5α; experiment: Growth curves with inhibitor, E. coli; format: cell-based
Procedure: (§3) Growth curves. Bacterial cultures were prepared by diluting stationary phase overnight cultures to an OD600 of 0.1 in 5 ml of LB. The inhibitor, L-161,240, was resuspended in DMSO to a final concentration of 10 mg/ml and added to the bacterial cultures to a final concentration of 50 μg/ml or 10 μg/ml. In the samples without inhibitor, DMSO was added to keep the final concentration of DMSO equivalent between samples. The cultures were incubated with shaking and 0.8 ml was taken for OD600 readings over the course of the experiment.

[5] = test system: P. aeruginosa PA01; experiment: Growth curves with inhibitor, P. aeruginosa wild type; format: cell-based
Procedure: as §3

[6] = test system: P. aeruginosa PAO 200 (MexAB-OprM efflux mutant); experiment: Growth curves with inhibitor, efflux pump mutant; format: cell-based; conditions: FIG. 4
Description: L-161, 240 is a substrate for the major drug efflux pump of P. aeruginosa. […] However the only one that is constitutively expressed to a high degree in the wild type strains is MexAB-OprM (Kohler, T., M. Michea-Hamzehpour, and U. Henze. 1997. Characterization of MexE-MexF-OprN, a positively regulated multidrug efflux system of Pseudomonas aeruginosa. Mol. Microbiol. 23: 345-354). Therefore, mutants of this efflux system can be used to evaluate the consequences of diminished efflux pump activity. These mutants would be expected to be highly sensitive to a number of antibiotics.

[7] = test system: E. coli JBK-1 carrying lpxC from E. coli; experiment: Growth at 42° C. of E. coli JBK-1 carrying the lpxC copy from E. coli; format: cell-based; conditions: data not shown
Procedure: (§1) Growth curves. Bacterial cultures were prepared by diluting stationary phase overnight cultures to an OD600 of 0.1 in 5 ml of LB. […] The cultures were incubated with shaking and 0.8 ml was taken for OD600 readings over the course of the experiment. DH5α, PA01, and PA0200 (Schweizer, H. P. 1998. Intrinsic resistance to inhibitors of fatty acid biosynthesis in Pseudomonas aeruginosa is due to efflux: application of a novel technique for generation of unmarked chromosomal mutations for the study of efflux systems. Antimicrob. Agents Chemother. 42: 394-398) were all grown at 37° C. In the cases where temperature sensitive JBK strains were being assayed, the cultures were grown at 42° C. for both the overnight and the time course cultures.
(§2) The E. coli strain JBK-1/pKD6 contains the chromosomal lpxC gene disrupted with a kan element and a wild type copy of E. coli lpxC on the temperature-sensitive replicon pKD6. The strain was constructed as described by Sorensen et al., 1996. Since lpxC is essential for growth, this strain is not viable at 42° C. because the functional copy is on the temperature sensitive replicon.

[8] = test system: E. coli JBK-1 carrying lpxC from P. aeruginosa
Procedure: as §1, §2

[9] = test system: 'promoter swapped' P. aeruginosa lpxC mutants; experiment: MIC determinations for 'promoter swapped' mutants; format: cell-based
Procedure: MIC determinations for ‘promoter swapped’ mutants. Single colonies of DH5α, PA01 and each promoter swap strain were picked and grown in LB at 37° C. with shaking for approximately 4 hours. Assuming that an OD600 reading of 1.0 is equivalent to 10^9 cells/ml, dilutions were made of all cultures to 5×10^5 cells/ml. 200 μl of each diluted culture was added to each well where a two-fold serial dilution of inhibitor had been placed. The 96-well plates were incubated at 37° C. overnight and their OD600 determined using the Spectramax Plus (Molecular Devices) plate reader.
To confirm the effect of the arabinose-sensitive promoter in regulating the lpxC expression in the swapped mutants, MIC determinations were performed as above, except that arabinose was added to induce expression of the chromosomal locus and override the effects of the plasmid borne lpxC. In this case the stationary-phase overnight bacterial culture was diluted to 5×10^5 cells/ml in LB containing Arabinose to a final concentration of 0.2% (a 20% stock made up in water).
Using the ‘promoter swap’ technique as described in the methods, it was possible to replace expression from the wild type chromosomal copy of P. aeruginosa lpxC, with expression solely from a plasmid borne copy. […]

[10] = test system: E. coli; conditions: cited from earlier work
[11] = test system: P. aeruginosa PA01
Procedure: Polymixin B nonapeptide (Sigma) was prepared as a suspension in DMSO at 3 mg/ml final concentration. Erythromycin and Tetracycline were resuspended in DMSO to a final concentration of 250 mg/ml and 125 mg/ml, respectively. L-161,240 was prepared as above in DMSO to a final concentration of 10 mg/ml. These DMSO antibiotic solutions were individually added to LB to the appropriate final concentration and mixed. Polymixin B nonapeptide was then added to the appropriate samples and mixed. DMSO was added to each sample to keep the final concentration of DMSO equivalent between samples. A stationary phase overnight culture of PA01 was added to each sample to bring the final concentration to 0.1 OD600. Samples were removed for OD600 determinations every 1-2 hours for 6.5 hours and the data from these time points were plotted.
In order to determine the effect of outer membrane exclusion of L-161,240, we exposed P. aeruginosa to PMBN in combination with L-161,240, and with other lipophilic antibiotics as positive controls.

[12] = test system: E. coli; conditions: lethal intraperitoneal dose of E. coli; cited from earlier work
[13] = test system: P. aeruginosa; conditions: cited from earlier work

Chain of LpxC from P. aeruginosa (P47205 whole entry): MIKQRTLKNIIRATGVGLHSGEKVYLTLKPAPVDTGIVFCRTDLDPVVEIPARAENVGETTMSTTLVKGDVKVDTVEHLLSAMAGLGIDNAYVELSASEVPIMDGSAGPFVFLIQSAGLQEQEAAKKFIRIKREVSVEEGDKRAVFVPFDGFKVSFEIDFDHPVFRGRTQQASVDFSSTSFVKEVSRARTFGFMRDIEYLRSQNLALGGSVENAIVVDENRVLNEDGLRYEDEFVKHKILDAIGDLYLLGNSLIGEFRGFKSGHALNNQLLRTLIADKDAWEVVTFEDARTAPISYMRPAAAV
Chain of E. coli LpxC enzyme (P0A725 whole entry): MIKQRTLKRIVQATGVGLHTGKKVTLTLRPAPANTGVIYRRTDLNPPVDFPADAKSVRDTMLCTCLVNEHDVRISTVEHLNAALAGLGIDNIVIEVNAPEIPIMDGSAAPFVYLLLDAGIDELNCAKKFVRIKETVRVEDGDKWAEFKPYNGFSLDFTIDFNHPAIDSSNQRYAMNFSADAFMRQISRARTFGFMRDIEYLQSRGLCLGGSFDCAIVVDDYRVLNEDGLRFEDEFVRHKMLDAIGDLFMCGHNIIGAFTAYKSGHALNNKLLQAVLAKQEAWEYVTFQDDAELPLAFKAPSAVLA

O=C(O)CN(CCN(CC(=O)O)CC(=O)O)CC(=O)O [EDTA]
EDTA concentration significantly inhibiting P. aeruginosa LpxC enzyme [1]: ≤ 2 µM | sensitivity of E. coli LpxC enzyme to EDTA [2]: not sensitive | sensitivity of envA1 mutant LpxC to EDTA [3]: sensitive

CCCc1cc(C2=N[C@@H](C(=O)NO)CO2)cc(OC)c1OC [L-161,240]
prevention of growth of E. coli [4]: effective in preventing growth | prevention of growth of P. aeruginosa [5]: completely ineffective | sensitivity of efflux mutant PAO 200 compared with wild type [6]: not more sensitive | sensitivity of JBK-1 carrying E. coli lpxC to killing [7]: still sensitive to killing by a slightly higher concentration | inhibitor concentration to which JBK-1 carrying P. aeruginosa lpxC is resistant ([8]; 42° C., data not shown): > 50 µg/mL | resistance level relative to the MIC of the wild type organisms ([8]; JBK-1 carrying P. aeruginosa lpxC): about 50 times | sensitivity of all promoter swap transformants with chromosomal lpxC induced ([9]; LB containing 0.2% arabinose, vector with E. coli or P. aeruginosa lpxC): resistant to killing | sensitivity of P. aeruginosa expressing only E. coli LpxC versus wild type / P. aeruginosa enzyme ([9]; promoter swap, native lpxC shut off, plasmid-borne E. coli lpxC, no arabinose): much more sensitive | minimal inhibitory concentration against E. coli [10]: about 1 microgram per milliliter | sensitivity of P. aeruginosa in combination with PMBN [11]: remained unchanged | outcome in mice infected with lethal dose of E. coli [12]: cured | inhibition of LpxC from P. aeruginosa [1]: only at very high concentrations, and even then it did so poorly | effect on bacterial growth of P. aeruginosa [13]: no effect on bacterial growth

CN(C)[C@@H]1C(O)=C(C(N)=O)C(=O)[C@@]2(O)C(O)=C3C(=O)c4c(O)cccc4[C@@](C)(O)[C@H]3C[C@@H]12 [tetracycline]
lowering of MIC for P. aeruginosa by PMBN [11]: more than 16 fold
